{"source": "patent US20230026163A1", "about": "“ANTICANCER COMPOUND AND MEDICAL USE THEREOF” (ASCENTAWITS PHARMACEUTICALS, LTD., priority 2019, published 2023)", "key": {"[1]": {"assay": "Plasma stability, rat", "assay_type": "in vitro ADME", "details": "Rat plasma, 5 μM, 37° C., after 30 minutes", "experimental": "(§1) Frozen plasma was melted immediately in a water bath at 37° C. […] The supernatants were collected into new tubes, respectively. pH values of the plasma were checked and recorded. Note: a, no more 2 times melted plasma was used since the sample was received; b, the plasma in pH 7 to pH 8 was used.\n(§2) 1 mM of working solution of the test compounds and the control compound, propantheline, were prepared in DMSO. 1 mM of working solution of the control compound in […] was prepared in acetonitrile. 4 μL of the working solutions were added to 796 μL of pre-incubated plasma respectively to achieve a final concentration of 5 μM. The final concentration of solvent was 0.5%.\n(§3) […] The test was performed in duplicate. […] 50 μL of the labeled plasma was added to new tubes containing 300 μL of the quench solution of room temperature, i.e., the sample with a preparation time of 0. The samples were vortexed to mix for 5 minutes. […] 100 μL of the supernatant was transferred to new plates."}, "[2]": {"assay": "Plasma stability, dog", "assay_type": "in vitro ADME", "details": "Dog plasma, 5 μM, 37° C., after 30 minutes", "experimental": "as §1, §2, §3"}, "[3]": {"tested_on": "H460 non-small cell lung cancer", "details": "cited from earlier work"}, "[4]": {"tested_on": "H460 cell line", "details": "test results in WO2016210175A1 and CN108024974A, cited from earlier work"}, "[5]": {"assay": "Plasma stability, human", "assay_type": "in vitro ADME", "details": "5 μM, 37° C., after 30 minutes", "experimental": "as §1, §2\nAliquots of 50 μL of labelled plasma were transferred to new tubes and incubated in a water bath at 37° C. at approximately 60 rpm for 2 hours. The test was performed in duplicate. […] 50 μL of the labeled plasma was added to new tubes containing 300 μL of the quench solution of room temperature, i.e., the sample with a preparation time of 0. The samples were vortexed to mix for 5 minutes. […] 100 μL of the supernatant was transferred to new plates."}, "[6]": {"assay": "Plasma stability, mouse", "assay_type": "in vitro ADME", "details": "Mouse plasma, 5 μM, 37° C., after 30 minutes", "experimental": "as §1, §2, §3"}, "[7]": {"assay": "Plasma stability, monkey", "assay_type": "in vitro ADME", "details": "5 μM, 37° C., after 30 minutes", "experimental": "as §1, §2, §3"}, "[8]": {"tested_on": "H460 cell line", "assay": "Hypoxia-dependent cytotoxicity experiment (2 hours exposure, air or N2, CTG)", "assay_type": "cell-based", "details": "Homo sapiens, then 3 days", "experimental": "To determine the effect of the compounds of the present disclosure on cancer cell proliferation, these compounds were tested for cancer cell anti-proliferative activity in a porous CTG-based assay. Cell growth was compared in the present (treatment groups) and the absence of the test compound. 10,000 cells/well/495 μL of medium was used to test the following cell line, a human tumor cell line of H460 non-small cell lung cancer. The cells were seeded on glass-inserts located in each well of 24-well plates with a density and medium as specified above. 24 hours later, the plates were divided into 2 groups, hypoxia (using N2) group and air group. TH-302 at the concentrations from 100, 10, 0.1 to 0.01 μM, and the test compounds at the concentrations from 10, 1, 0.1, 0.01, 0.001 to 0.0001 were added to each well (500 μL volume) of the treatment groups. The final DMSO concentration in each well was lower than or equal to 1%. The cells in the hypoxia group were incubated for 2 hours in an ELECTROTEK hypoxia workstation. The cells in the air group were incubated for 2 hours in a standard culture incubator. 2 hours later, the test compounds were removed from each well. The cells were washed with 500 μL of medium and incubated in 500 μL of fresh medium for 3 days. 3 days later, 200 μL of medium per well was discarded. 60 μL of CTG was added to the wells, and the plates were placed at room temperature for 15 minutes in the dark. 100 μL of medium from each well of the 24-well plates was transferred to 96-well plates. The chemiluminescence signal values were read with an M5 full-band multi-mode-function microplate reader, and integration=750 ms. The compounds of control 1 and control 2 were used as controls."}, "[9]": {"tested_on": "H460 cell line", "assay": "Cytotoxicity comparison of TH-302 and compound 01 on H460 at different test times", "assay_type": "cell-based, human", "details": "Homo sapiens, NCI-H460, 2 h, H460, exposure for 2 hours, air", "excerpt": "The cytotoxicity test results of TH-302 and compound 01 on H460 cell line under different test times in the same laboratory, the same operator, and the same experimental conditions."}, "[10]": {"tested_on": "H460", "assay": "Cytotoxicity on cell lines of different species: H460", "assay_type": "cell-based", "details": "NCI-H460; H460, Human; exposure time: 72 h"}, "[11]": {"tested_on": "AA8", "assay": "Cytotoxicity on cell lines of different species: AA8", "assay_type": "cell-based"}, "[12]": {"biological_target": "P-glycoprotein (Homo sapiens, UniProt P08183)", "sequence (P08183 whole entry)": "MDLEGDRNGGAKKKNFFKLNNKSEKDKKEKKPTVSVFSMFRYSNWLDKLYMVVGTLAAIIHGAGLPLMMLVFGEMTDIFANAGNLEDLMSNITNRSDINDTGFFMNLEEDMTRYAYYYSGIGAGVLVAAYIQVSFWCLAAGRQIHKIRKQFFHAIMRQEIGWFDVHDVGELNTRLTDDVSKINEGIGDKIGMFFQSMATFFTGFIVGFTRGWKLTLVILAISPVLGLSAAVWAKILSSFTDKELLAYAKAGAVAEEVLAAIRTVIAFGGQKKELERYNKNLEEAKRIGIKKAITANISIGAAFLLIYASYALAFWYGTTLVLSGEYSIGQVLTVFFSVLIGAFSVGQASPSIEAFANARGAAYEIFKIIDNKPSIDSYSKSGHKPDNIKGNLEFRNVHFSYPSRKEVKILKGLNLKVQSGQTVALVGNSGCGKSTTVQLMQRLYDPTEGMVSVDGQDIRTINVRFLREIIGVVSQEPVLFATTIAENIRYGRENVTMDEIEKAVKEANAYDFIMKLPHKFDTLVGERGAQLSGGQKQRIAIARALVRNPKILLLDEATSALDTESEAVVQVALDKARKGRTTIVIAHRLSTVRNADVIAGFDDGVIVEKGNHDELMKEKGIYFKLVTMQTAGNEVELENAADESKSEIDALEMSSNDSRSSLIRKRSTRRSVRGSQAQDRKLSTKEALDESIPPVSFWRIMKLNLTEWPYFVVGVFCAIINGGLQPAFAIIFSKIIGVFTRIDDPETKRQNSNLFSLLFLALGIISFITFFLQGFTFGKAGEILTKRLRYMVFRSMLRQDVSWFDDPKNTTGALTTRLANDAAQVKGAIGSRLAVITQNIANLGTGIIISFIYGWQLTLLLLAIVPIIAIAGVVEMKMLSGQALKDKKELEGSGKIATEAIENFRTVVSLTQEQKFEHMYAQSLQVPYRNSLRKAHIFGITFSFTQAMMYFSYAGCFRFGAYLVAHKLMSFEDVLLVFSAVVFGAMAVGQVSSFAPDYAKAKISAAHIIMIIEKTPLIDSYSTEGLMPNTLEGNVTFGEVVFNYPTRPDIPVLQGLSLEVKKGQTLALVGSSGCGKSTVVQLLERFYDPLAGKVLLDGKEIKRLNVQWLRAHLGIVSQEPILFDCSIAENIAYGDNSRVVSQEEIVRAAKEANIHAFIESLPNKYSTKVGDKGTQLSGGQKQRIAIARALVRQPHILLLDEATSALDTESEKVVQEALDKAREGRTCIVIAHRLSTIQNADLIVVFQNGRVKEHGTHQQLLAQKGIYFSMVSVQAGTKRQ", "design": "expressed in transfected cells; host or cells: MDCKII-MDR1 (MDCKII canine kidney cells)", "details": "cited from earlier work"}, "[13]": {"details": "test results in WO2016210175A1 and CN108024974A"}}, "note": "Read-outs that look alike come from different tables or passages of the source.", "data": [{"smiles": "CC[C@H](C)C(=O)O[C@H]1C[C@@H](C)C=C2C=C[C@H](C)[C@H](CC[C@@H]3C[C@@H](O)CC(=O)O3)[C@H]21", "note": "[Lovastatin, reference compound]", "values": [{"measurement": "Remaining percentage", "setting": "[1]", "result": 0.21, "unit": "%"}, {"measurement": "Remaining percentage", "setting": "[2]", "result": 37.6, "unit": "%"}]}, {"smiles": "C[C@@H](OP(=O)(N1CC1)N1CC1)c1ccc([N+](=O)[O-])cc1", "note": "[TH2565]", "values": [{"measurement": "IC50", "setting": "[3]; [13]", "result": 100, "unit": "nM"}, {"measurement": "IC50", "setting": "[4]; read-out: N2: IC50", "result": 18, "unit": "µM"}, {"measurement": "IC50", "setting": "[4]; read-out: Normoxia: IC50", "result": 0.1, "unit": "µM"}]}, {"smiles": "CC(C)[N+](C)(CCOC(=O)C1c2ccccc2Oc2ccccc21)C(C)C", "note": "[Propantheline, reference compound]", "values": [{"measurement": "Remaining percentage", "setting": "[5]", "result": 0.07, "unit": "%"}, {"measurement": "Remaining percentage", "setting": "[6]", "result": 5.33, "unit": "%"}, {"measurement": "Remaining percentage", "setting": "[7]", "result": 48.11, "unit": "%"}]}, {"smiles": "Cn1c(COP(=O)(NCCBr)NCCBr)cnc1[N+](=O)[O-]", "note": "[Control 1, Evofosfamide, reference compound]", "values": [{"measurement": "IC50", "setting": "[8]; NCI-H460, H460, air, read-out: Normoxia: IC50", "result": 7.98, "unit": "µM"}, {"measurement": "IC50", "setting": "[8]; NCI-H460, H460, hypoxia (N2), read-out: N2: IC50", "result": 0.0479, "unit": "µM"}, {"measurement": "IC50", "setting": "[9]; Time 1", "result": 23, "unit": "µM"}, {"measurement": "IC50", "setting": "[9]; Time 2", "result": 8, "unit": "µM"}, {"measurement": "IC50", "setting": "[9]; Time 3", "result": 3.3, "unit": "µM"}, {"measurement": "IC50", "setting": "[10]", "result": 20, "unit": "µM"}, {"measurement": "IC50", "setting": "[11]; CHO-AA8, AA8, Rat, exposure time: 72 h", "result": 830, "unit": "µM"}, {"measurement": "Multiple: Rat/Human", "setting": "[11]; IC50 AA8 / IC50 H460", "result": 41.5}, {"measurement": "IC50", "setting": "[3]; value from published literature (Meng et al., Mol Cancer Ther 2012)", "result": 800, "unit": "nM"}, {"measurement": "P-gp substrate (known / earlier data and literature)", "setting": "[12]", "result": "P-gp substrate"}]}, {"smiles": "C[C@H](OP(=O)(N1CC1)N1CC1)c1ccc([N+](=O)[O-])cc1", "note": "[TH2566]", "values": [{"measurement": "IC50", "setting": "[3]; [13]", "result": 100, "unit": "nM"}, {"measurement": "IC50", "setting": "[4]; read-out: N2: IC50", "result": 23, "unit": "µM"}, {"measurement": "IC50", "setting": "[4]; read-out: Normoxia: IC50", "result": 0.1, "unit": "µM"}]}]}
